Source: patent US11547300B2, “Methods of treating and imaging tumor micrometastases using photoactive immunoconjugates” (priority 2014, dated 2023)

Assays:
OVCAR5 cells = settings: cited from earlier work
EOC (NIH:OVCAR5) tumors = settings: mouse, in vivo
Procedure: Micrometastatic mouse model. An orthotopic xenograft mouse model of human ovarian carcinomatosis was established in our laboratory with gynecologic oncologists (30). Athymic Swiss female Nu/Nu mice (20-25 grams and 6-8 weeks old; Cox Breeding Laboratories) were injected intraperitoneally (i.p.) with 16×10^6 NIH:OVCAR5 (EOC) cells in 2 mL phosphate-buffered saline. All experiments were conducted according to Massachusetts General Hospital Institutional Animal Care and Use Committee (IACUC) guidelines.

| Compound | resistance relative to a platinum sensitive cell line (OVCAR5 cells) [fold] | tumor-to-bowel ratio (EOC (NIH:OVCAR5) tumors) | tumor-to-bowel ratio from fitting the pharmacokinetic data to a model (EOC (NIH:OVCAR5) tumors) |
| --- | --- | --- | --- |
| N.N.[Cl][Pt][Cl] [cisplatin] | 7 |  |  |
| verteporfin |  | 2.7 | 2.8 |
